Earlier results in US9854807B2, “Potentiation of fixed coppers and other pesticides containing copper and supplementing plant nutrition” (priority 2014, dated 2018).

Conditions: terms used by Richardson

For `[Cl-].[Cu+2].[Cu+2].[OH-].[OH-].[OH-]` [Copper(2) Oxychloride], the solubility in water is given as “essentially insoluble in water”.
